The values below come from ChEMBL document CHEMBL2074094 (Arch Biochem Biophys, 1998).

Data set [1] concerns the target T1, ATP-dependent translocase ABCB1 (Mus musculus, UniProt P21447). In words: TP_TRANSPORTER: transepithelial transport (basal to apical) in mdr1a-expressing LLC-PK1 cell. Format: functional, cell-based. The settings on record: pig.
The target of data set [2] is ATP-dependent translocase ABCB1 (Homo sapiens, UniProt P08183). Put plainly: TP_TRANSPORTER: transepithelial transport (basal to apical) in MDR1-expressing LLC-PK1 cells. Format: functional, cell-based. Conditions: pig.
The target of data set [3] is T1, ATP-dependent translocase ABCB1. In words: TP_TRANSPORTER: tissue concentration in mdr1a(-/-) mouse. Format: functional, organism-based. Conditions: in vivo.

T1 sequence (P21447 whole entry): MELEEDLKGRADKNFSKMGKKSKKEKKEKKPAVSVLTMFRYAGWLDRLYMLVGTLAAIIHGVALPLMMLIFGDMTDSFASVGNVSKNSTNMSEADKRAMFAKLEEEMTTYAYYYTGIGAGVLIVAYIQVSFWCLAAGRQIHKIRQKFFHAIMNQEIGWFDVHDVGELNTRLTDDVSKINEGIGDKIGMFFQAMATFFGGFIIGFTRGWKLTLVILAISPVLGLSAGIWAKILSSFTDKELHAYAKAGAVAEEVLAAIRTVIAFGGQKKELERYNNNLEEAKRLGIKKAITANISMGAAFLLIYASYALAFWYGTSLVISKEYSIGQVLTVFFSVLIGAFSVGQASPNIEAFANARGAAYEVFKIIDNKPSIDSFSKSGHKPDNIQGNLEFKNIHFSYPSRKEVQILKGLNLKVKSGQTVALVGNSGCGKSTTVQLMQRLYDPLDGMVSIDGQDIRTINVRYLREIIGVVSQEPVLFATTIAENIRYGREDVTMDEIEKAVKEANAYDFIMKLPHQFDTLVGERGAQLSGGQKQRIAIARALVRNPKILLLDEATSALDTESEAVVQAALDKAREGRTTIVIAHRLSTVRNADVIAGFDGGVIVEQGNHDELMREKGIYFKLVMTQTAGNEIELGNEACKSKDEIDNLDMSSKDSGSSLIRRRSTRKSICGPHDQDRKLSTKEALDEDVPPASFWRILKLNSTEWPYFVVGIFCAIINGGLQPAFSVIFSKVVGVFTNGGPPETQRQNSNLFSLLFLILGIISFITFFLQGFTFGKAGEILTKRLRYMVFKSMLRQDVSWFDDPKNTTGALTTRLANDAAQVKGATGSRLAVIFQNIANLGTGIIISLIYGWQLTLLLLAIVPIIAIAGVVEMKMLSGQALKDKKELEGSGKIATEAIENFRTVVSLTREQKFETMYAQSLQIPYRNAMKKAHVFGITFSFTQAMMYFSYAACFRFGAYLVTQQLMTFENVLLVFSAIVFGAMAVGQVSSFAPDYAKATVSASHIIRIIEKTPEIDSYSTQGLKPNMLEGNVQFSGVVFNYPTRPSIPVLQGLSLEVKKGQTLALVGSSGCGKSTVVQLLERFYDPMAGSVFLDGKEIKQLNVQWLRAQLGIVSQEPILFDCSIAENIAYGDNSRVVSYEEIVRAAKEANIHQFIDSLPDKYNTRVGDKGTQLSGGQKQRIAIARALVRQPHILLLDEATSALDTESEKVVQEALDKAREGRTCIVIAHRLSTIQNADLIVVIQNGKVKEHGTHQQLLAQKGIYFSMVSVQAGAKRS
Sequence of ATP-dependent translocase ABCB1 (Homo sapiens, UniProt P08183) (P08183 whole entry): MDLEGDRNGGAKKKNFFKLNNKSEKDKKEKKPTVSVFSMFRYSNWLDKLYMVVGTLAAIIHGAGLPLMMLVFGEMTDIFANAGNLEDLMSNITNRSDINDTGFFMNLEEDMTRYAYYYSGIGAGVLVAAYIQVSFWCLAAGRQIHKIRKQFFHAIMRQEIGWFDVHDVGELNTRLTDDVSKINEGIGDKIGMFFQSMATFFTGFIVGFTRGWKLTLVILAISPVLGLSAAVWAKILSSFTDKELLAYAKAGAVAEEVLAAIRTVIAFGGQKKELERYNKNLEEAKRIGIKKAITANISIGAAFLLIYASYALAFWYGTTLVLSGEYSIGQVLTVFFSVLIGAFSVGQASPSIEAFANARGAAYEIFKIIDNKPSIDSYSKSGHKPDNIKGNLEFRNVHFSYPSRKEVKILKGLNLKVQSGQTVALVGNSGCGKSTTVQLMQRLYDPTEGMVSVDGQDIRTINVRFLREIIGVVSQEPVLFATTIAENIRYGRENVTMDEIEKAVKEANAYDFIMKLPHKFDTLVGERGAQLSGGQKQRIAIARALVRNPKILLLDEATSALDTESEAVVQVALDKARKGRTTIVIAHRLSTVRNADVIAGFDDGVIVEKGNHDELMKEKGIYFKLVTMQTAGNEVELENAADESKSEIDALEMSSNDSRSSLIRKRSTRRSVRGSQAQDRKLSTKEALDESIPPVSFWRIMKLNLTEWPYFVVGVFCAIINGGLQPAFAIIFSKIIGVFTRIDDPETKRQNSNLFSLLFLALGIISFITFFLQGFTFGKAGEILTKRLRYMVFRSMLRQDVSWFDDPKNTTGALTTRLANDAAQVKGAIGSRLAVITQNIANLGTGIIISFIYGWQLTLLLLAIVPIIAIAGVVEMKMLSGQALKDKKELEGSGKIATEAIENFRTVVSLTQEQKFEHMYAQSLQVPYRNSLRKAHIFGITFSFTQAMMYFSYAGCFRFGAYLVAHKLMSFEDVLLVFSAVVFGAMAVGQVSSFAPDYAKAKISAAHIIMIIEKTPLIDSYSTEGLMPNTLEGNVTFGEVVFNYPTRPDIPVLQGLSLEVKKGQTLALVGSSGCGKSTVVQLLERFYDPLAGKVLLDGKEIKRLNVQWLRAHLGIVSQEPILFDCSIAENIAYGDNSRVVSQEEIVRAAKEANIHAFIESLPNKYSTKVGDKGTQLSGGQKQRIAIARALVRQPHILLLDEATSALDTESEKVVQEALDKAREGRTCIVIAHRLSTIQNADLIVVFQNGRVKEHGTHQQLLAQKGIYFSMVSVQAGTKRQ

Consider `c1ccc2c(c1)cc1ccc3cccc4ccc2c1c34`, for which the Activity result in data set [1] and in data set [2] was “is not a substrate [-]” each time.
As to `CC1=C(/C=C/C(C)=C/C=C/C(C)=C/C(=O)O)C(C)(C)CCC1` [TRETINOIN], the Activity result in data set [1], in data set [3] and in data set [2] was “is not a substrate [-]” throughout.
